Assay [1] relates to phenylquinone induced writhings. The assay can be described thus: Phenylquinone writhing (50 per cent reduction in number of phenylquinone induced writhings), mouse. In kind it is in vivo. The settings on record: for ED50 / ED50 Agonist Activity, Phenylquinone Writhing, Mouse, SC: weights in terms of the free base. On the procedure:
(§1) In vivo testing was conducted on the compounds designated herein as XVc (racemic mixture), d-XVc (dextrorotatory isomer), l-XVc (levorotatory isomer) and dl-XVd (see examples for structures) to determine their agonist and/or antagonist properties. The figures reported are the number of milligrams/kilogram of body weight of compound that produced an agonist or antagonist effect in 50% of the mice and rats so tested (ED50).
(§2) All the compounds were tested as the tartrates, but the weights reported in mg./kg. are corrected and reported in terms of the free base.
(§3) ^1 A 50 per cent reduction in number of phenylquinone induced writhings (Siegmund, E. A. et al., Proc. Soc. Biol. & Med. 95, 729; 1957).

Assay [2] deals with Straub Tail induced by oxymorphone. Put plainly: Antagonism of Straub Tail induced by oxymorphone in 50 per cent of mice. The settings on record: oxymorphone 2 mg./kg. sc., weights in terms of the free base; for ED50: Mus musculus. The format is in vivo. As to the method: as §1, §2
^2 Antagonism of Straub Tail induced by oxymorphone (2 mg./kg. sc.) in 50 per cent of mice.

For assay [3], the system named is righting reflex loss induced by oxymorphone. The assay can be described thus: animal or person. The settings on record: Rattus norvegicus, rats, oxymorphone 1.5 mg./kg. sc., weights in terms of the free base. In kind it is in vivo. On the procedure:
as §1, §2
^3 Antagonism of righting reflex loss induced by oxymorphone (1.5 mg./kg. sc.) in 50 per cent of rats.

Assay [4] relates to phenylquinone induced writhings. The assay can be described thus: Phenylquinone writhing (50 per cent reduction in number of phenylquinone induced writhings), rat. The format is in vivo. The settings on record: weights in terms of the free base; for ED50: Rattus norvegicus. On the procedure:
as §1, §2, §3

For assay [5], the system named is analgesic effect induced by morphine. The assay can be described thus: animal or person. In kind it is in vivo. The settings on record: morphine 15 mg./kg. sc., weights in terms of the free base; for ED50: Rattus norvegicus. On the procedure:
as §1, §2

Assay [6] can be described thus: In vivo testing for agonist and/or antagonist properties (overall conclusion from Table I). The arrangement: species or system mice and rats. The conditions noted are these: parenteral and oral administration. As to the method: as §1
[7] abbreviates: Mus musculus, sc, read-out: ED50 Agonist Activity, Phenylquinone Writhing, Mouse, SC.
Where [8] appears, read: sc, read-out: ED50 Antagonist Activity, Oxymorphone Straub Tail, SC.
Setting [9] is: SC, read-out: ED50 Antagonist Activity, Oxymorphone Narcosis, SC.
Where [10] appears, read: po, read-out: ED50 Agonist Activity, Phenylquinone Writhing, Rat, PO.
Setting [11] is: sc, read-out: ED50 Agonist Activity, Phenylquinone Writhing, Rat, SC.
Where [12] appears, read: po, read-out: ED50 Antagonist Activity, Morphine Antagonism Rat Tail Flick, PO.
The mark [13] stands for this setting: sc, read-out: ED50 Antagonist Activity, Morphine Antagonism Rat Tail Flick, SC.

Structures can show the parent of a compound that is named as a salt. Where two headings read alike, the source gives them in different places.

What is called ED50 is the dose at which the effect has come halfway, by size or by number of responders.

For the compound `C[C@@]12OCCC[C@@]13CCN(CC1CC1)[C@@H]2Cc1ccc(O)cc13` (racemic) [XVc tartrate, N-Cyclopropylmethyl-3-hydroxy-14β-methyl-8-oxamorphinan], the median effective dose (ED50) in assay [1] (setting [7]) came out at 0.19 mg/kg; in assay [2] (setting [8]), 0.61 mg/kg; in assay [3] (setting [9]) it was 0.36 mg/kg; in assay [4] (setting [10]), 4 mg/kg; in assay [4] (setting [11]), 0.03 mg/kg; in assay [5] (setting [12]), 7.3 mg/kg. Further, in assay [5] (setting [13]), the ED50 was 0.05 mg/kg.

As to `C=CCN1CC[C@]23CCCC[C@H]2[C@H]1Cc1ccc(O)cc13` [Levallorphan, reference compound], the “dose response, Phenylquinone Writhing, Mouse, SC” value in assay [1] (SC, remark under the ED50) was “poor dose”. Also, the ED50 in assay [1] (SC, read-out: ED50 Agonist Activity, Phenylquinone Writhing, Mouse, SC) was 26.3 mg/kg.

As to `C=CCN1CC[C@]23c4c5ccc(O)c4O[C@H]2[C@@H](O)C=C[C@H]3[C@H]1C5` [Nalorphine, reference compound], the ED50 in assay [2] (setting [8]) was determined as 1.14 mg/kg.

Take `CC(C)=CCN1CCC2(C)c3cc(O)ccc3CC1C2C` (stereo not shown) [Pentazocine, reference compound]: the ED50 amounted to 10 mg/kg in assay [3] (setting [9]) and 12.2 mg/kg in assay [5] (setting [13]).

On to `C[C@@]12OCCC[C@@]13CCN(CC1CC1)[C@@H]2Cc1ccc(O)cc13` [d-XVc tartrate, N-Cyclopropylmethyl-3-hydroxy-14β-methyl-8-oxamorphinan], for which, in assay [1] (SC), the “ED50 Agonist Activity, Phenylquinone Writhing, Mouse, SC” value was greater than 40 mg/kg. The “ED50 Antagonist Activity, Oxymorphone Straub Tail, SC” value in assay [2] is greater than 10 mg/kg. The “ED50 Antagonist Activity, Morphine Antagonism Rat Tail Flick, SC” value in assay [5] is greater than 20 mg/kg.

As for `C[C@@]12OCCC[C@@]13CCN(CC1CC1)[C@@H]2Cc1ccc(O)cc13` [l-XVc tartrate, N-Cyclopropylmethyl-3-hydroxy-14β-methyl-8-oxamorphinan], the ED50 in assay [1] (Mus musculus, po, read-out: ED50 Agonist Activity, Phenylquinone Writhing, Mouse, PO) is 2.7 mg/kg; in assay [2] (po, read-out: ED50 Antagonist Activity, Oxymorphone Straub Tail, PO) it was 14.6 mg/kg; in assay [3] (PO, read-out: ED50 Antagonist Activity, Oxymorphone Narcosis, PO), 1.25 mg/kg; in assay [3] (setting [9]) it was 0.014 mg/kg; in assay [4] (setting [10]) it was 1.3 mg/kg; in assay [5] (setting [12]), 6.3 mg/kg. For the same compound, in assay [1] (SC), the “ED50 Agonist Activity, Phenylquinone Writhing, Mouse, SC” value came out at 0.11 mg/kg. The “ED50 Antagonist Activity, Oxymorphone Straub Tail, SC” value in assay [2] is given as “≈ 0.2 mg./kg”. The “agonist and antagonist activity” value in assay [6] was “potent agonist and antagonist activity”. Also, the “ED50 Agonist Activity, Phenylquinone Writhing, Rat, SC” value in assay [4] (SC) was determined as 0.02 mg/kg. Moreover, in assay [5], the “ED50 Antagonist Activity, Morphine Antagonism Rat Tail Flick, SC” value came to 0.021 mg/kg.

Regarding `Cl.Oc1ccc2c(c1)[C@@]13CCCO[C@H]1[C@H](C2)N(CC1CC1)CC3` [l-XVk hydrochloride, l-N-cyclopropylmethyl-3-hydroxy-8-oxamorphinan hydrochloride], the ED50 turned out to be 0.013 mg/kg in assay [1] (setting [7]); 0.2 mg/kg in assay [2] (setting [8]); 0.03 mg/kg in assay [3] (setting [9]); 0.009 mg/kg in assay [4] (setting [11]); 0.97 mg/kg in assay [5] (setting [13]).

For the origin of these results see patent publication US3959290A, “3,14-Substituted-8-oxamorphinans” (Bristol-Myers Company, priority 1974, dated 1976).
